Measured values from patent US12636275B2, “Pharmaceutical use of ketoamide-based compound” (Shanghai Institute of Materia Medica, Chinese Academy of …, priority 2020, dated 2026).

Target: T1, 2019-nCoV 3CL protease (Severe acute respiratory syndrome coronavirus 2, UniProt P0DTD1)
T1 construct: against 3CL protease of 2019 novel coronavirus (2019-nCoV 3CL^pro)
Assay: Inhibitory activity against 3CL protease of 2019 novel coronavirus (FRET)
Assay type: biochemical
Settings: FRET, 37° C., substrate 20 μM
Procedure: To determine the inhibitory activity of the compound against 3CL protease of 2019 novel coronavirus (2019-nCoV 3CL^pro): the enzyme level inhibitory activity of inhibitors against 3CL protease was determined by fluorescence resonance energy transfer (FRET) technology. In a 96-well plate, 27.5 μL of buffer (20 mM Tris, 100 mM NaCl, 1 mM EDTA, pH 7.4) was added to each well, 2.5 μL compounds ([…], respectively) and 5 μL […] (final concentration was 3 μM) were added at the same time. Incubated at 37° C. for 15 min. Then 15 μL fluorescent substrate diluted with buffer (final concentration was 20 μM) was added. The fluorescence parameters were determined by Ge n5 fluorescence spectrophotometer. The excitation wavelength and emission wavelength were 340 nm and 490 nm respectively, kept at 37° C., and the data were read after 10 min. A negative control was used, in which no compound was added to the control, and the rest was the same.

Row | SMILES | IC50 [µM]
1 | O=C(CC[C@H](NC(=O)[C@H](Cc1ccccc1)NC(=O)c1cnc2ccccc2n1)C(=O)C(=O)NCc1ccccc1)NC1CCCCC1 [Example A239, N—((S)-1-(((S)-4-(benzyl)-3,4-dione-1-(cyclohexylamino)-2-yl)amino)-3-(phenyl)-1-oxopropan-2-yl)-quinoxaline-2-carboxamide] | 3.8
2 | O=C(NC1CCCCC1)C(=O)[C@H](C[C@@H]1CCCNC1=O)NC(=O)[C@H](CC1CCCCC1)NC(=O)c1cc2cccc(Br)c2o1 [Example A257, N—((S)-1-(((S)-4-(cyclohexylamino)-3,4-dione-1-((S)-2-oxopiperidin-3-yl)but-2-yl)amino)-3-cyclohexyl-1-oxopropan-2-yl)-6-bromo-benzofuran-2-carboxamide] | 5.2
3 | CCOc1ccc2oc(C(=O)N[C@@H](CC3CCCCC3)C(=O)N[C@@H](C[C@@H]3CCCNC3=O)C(=O)C(=O)NCc3ccccc3)cc2c1 [Example A259, N—((S)-1-(((S)-4-(benzylamino)-3,4-dione-1-((S)-2-oxopiperidin-3-yl)but-2-yl)amino)-3-cyclohexyl-1-oxopropan-2-yl)-5-ethoxyl-benzofuran-2-carboxamide] | 9.5
4 | O=C(NCc1ccccc1)C(=O)[C@H](C[C@@H]1CCCNC1=O)NC(=O)[C@H](CC1CCCCC1)NC(=O)c1cccnn1 [Example A268, N—((S)-1-(((S)-4-(benzylamino)-3,4-dione-1-((S)-2-oxopiperidin-3-yl)but-2-yl)amino)-3-cyclohexyl-1-oxopropan-2-yl)-pyridazine-2-carboxamide] | 5.6
5 | O=C(NCc1ccccc1)C(=O)[C@H](C[C@@H]1CCCNC1=O)NC(=O)[C@H](CC1CCCCC1)NC(=O)c1cc2c(F)c(F)ccc2[nH]1 [Example A269, N—((S)-1-(((S)-4-(benzylamino)-3,4-dione-1-((S)-2-oxopiperidin-3-yl)but-2-yl)amino)-3-cyclohexyl-1-oxopropan-2-yl)-4,5-indole-2-carboxamide] | 8.8
6 | O=C(NCc1cc(F)cc(F)c1)C(=O)[C@H](C[C@@H]1CCCNC1=O)NC(=O)[C@H](CC1CCCCC1)NC(=O)c1cc2ccccc2o1 [Example A270, N—((S)-1-(((S)-4-(3,5-difluorobenzylamino)-3,4-dione-1-((S)-2-oxopiperidin-3-yl)but-2-yl)amino)-3-cyclohexyl-1-oxopropan-2-yl)-benzofuran-2-carboxamide] | 7.6
7 | Cc1ccc(CN(C)C(=O)C(=O)[C@H](C[C@@H]2CCCNC2=O)NC(=O)[C@H](CC2CCCCC2)NC(=O)c2cc3ccccc3o2)cc1 [Example A272, N—((S)-1-(((S)-4-(4-methylbenzylmethylamino)-3,4-dione-1-((S)-2-oxopiperidin-3-yl)but-2-yl)amino)-3-cyclohexyl-1-oxopropan-2-yl)-benzofuran-2-carboxamide] | 4.8
8 | O=C(NCc1ccc(-c2ccccc2)cc1)C(=O)[C@H](C[C@@H]1CCCNC1=O)NC(=O)[C@H](CC1CCCCC1)NC(=O)c1cc2ccccc2o1 [Example A275] | 5.8
9 | CC(C)(C)NC(=O)C(=O)[C@H](C[C@@H]1CCNC1=O)NC(=O)[C@H](Cc1ccccc1)NC(=O)c1cc2ccccc2o1 [Example A291, N—((S)-1-(((S)-4-(tert-butylamino)-3,4-dione-1-((S)-2-oxopyrrolidin-3-yl)but-2-yl)amino)-3-phenyl-1-oxopropan-2-yl)-benzofuran-2-carboxamide] | 15.2
10 | C[C@@H](NC(=O)C(=O)[C@H](C[C@@H]1CCNC1=O)NC(=O)[C@H](CC1CCCCC1)NC(=O)c1ccc2ccccc2n1)c1ccccc1 [Example A293] | 26.4
11 | O=C(NCc1ccccc1)C(=O)[C@H](C[C@@H]1CCNC1=O)NC(=O)[C@H](Cc1cccc(F)c1)NC(=O)c1ccc2ccccc2n1 [Example A305, N—((S)-1-(((S)-4-(benzylamino)-3,4-dione-1-((S)-2-oxopyrrolidin-3-yl)but-2-yl)amino)-3-(3-fluorophenyl)-1-oxopropan-2-yl)-quinoline-2-carboxamide] | 8.5
